We go through 4 cell lines from the supplement of paper PMC10307832.

Assay in all cases: relative viability (nuclei count vs DMSO), 5 days (fraction); higher = more cells survive
Compound in the experiment “Masitinib + Lapatinib”: Cc1ccc(NC(=O)c2ccc(CN3CCN(C)CC3)cc2)cc1Nc1nc(-c2cccnc2)cs1 [Masitinib] + CS(=O)(=O)CCNCc1ccc(-c2ccc3ncnc(Nc4ccc(OCc5cccc(F)c5)c(Cl)c4)c3c2)o1 [Lapatinib] (partner 2 µM)
The method in brief: (§1)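 Five library-drug doses in √10 steps were combined with a fixed anchor-drug dose, or a single drug was given alone, by pin tool to lung cancer cell lines in 1536-well plates the day after seeding. Nuclei were stained and counted after 5 days. Relative viability is the nuclei count in treated wells over that in vehicle wells, taken as the median of duplicate plates.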

Compound in experiment [1]: CC1=CC(=CC=C1)NC2=NC(=CS2)C3=CC=NC=C3 + COc1cccc2cc(-c3nc([C@H]4CC[C@H](C(=O)O)CC4)n4ncnc(N)c34)[nH]c12 [OSI-027] (partner 0.5 µM)
The method in brief:
as §1

Compound in the experiment “Masitinib + AZD7762”: Cc1ccc(NC(=O)c2ccc(CN3CCN(C)CC3)cc2)cc1Nc1nc(-c2cccnc2)cs1 [Masitinib] + NC(=O)Nc1cc(-c2cccc(F)c2)sc1C(=O)N[C@H]1CCCNC1 [AZD7762] (partner 0.2 µM)
The method in brief: as §1

Compound in the experiment “Masitinib + Luminespib”: Cc1ccc(NC(=O)c2ccc(CN3CCN(C)CC3)cc2)cc1Nc1nc(-c2cccnc2)cs1 [Masitinib] + CCNC(=O)c1noc(-c2cc(C(C)C)c(O)cc2O)c1-c1ccc(CN2CCOCC2)cc1 [Luminespib] (partner 0.01 µM)
The method in brief:
as §1

Turning to LU99A, the relative viability turned out to be 0.953 with Masitinib + Lapatinib (first compound 0.01 µM); 1.1 in the experiment with Masitinib + Lapatinib (first compound 0.03162 µM); 1.05 with Masitinib + Lapatinib (first compound 0.1 µM); 1.05 in the experiment with Masitinib + Lapatinib (first compound 0.3162 µM); 0.981 with Masitinib + Lapatinib (first compound 1 µM); 0.271 in experiment [1] (first compound 0.08 µM). Besides, the relative viability in experiment [1] (first compound 0.253 µM) is 0.271; in experiment [1] (first compound 0.8 µM), 0.296; in experiment [1] (first compound 2.53 µM), 0.284; in experiment [1] (first compound 8 µM), 0.288; with Masitinib + AZD7762 (first compound 0.01 µM), 0.462; with Masitinib + AZD7762 (first compound 0.03162 µM), 0.293. In addition, the relative viability was 0.312 with Masitinib + AZD7762 (first compound 0.1 µM); 0.319 with Masitinib + AZD7762 (first compound 0.3162 µM); 0.273 in the experiment with Masitinib + AZD7762 (first compound 1 µM); 0.3 with Masitinib + Luminespib (first compound 0.01 µM); 0.219 with Masitinib + Luminespib (first compound 0.03162 µM); 0.271 with Masitinib + Luminespib (first compound 0.1 µM). For the same cell line, the relative viability with Masitinib + Luminespib (first compound 0.3162 µM) was found to be 0.353; with Masitinib + Luminespib (first compound 1 µM), 0.191.
Regarding LXF-289, the relative viability is 0.757 with Masitinib + Lapatinib (first compound 0.01 µM); 0.879 with Masitinib + Lapatinib (first compound 0.03162 µM); 0.938 with Masitinib + Lapatinib (first compound 0.1 µM); 0.929 with Masitinib + Lapatinib (first compound 0.3162 µM); 0.894 in the experiment with Masitinib + Lapatinib (first compound 1 µM); 0.794 in experiment [1] (first compound 0.08 µM). The relative viability in experiment [1] (first compound 0.253 µM) stood at 0.786; in experiment [1] (first compound 0.8 µM) it was 0.753; in experiment [1] (first compound 2.53 µM), 0.729; in experiment [1] (first compound 8 µM) it was 0.838; with Masitinib + AZD7762 (first compound 0.01 µM), 0.996; in the experiment with Masitinib + AZD7762 (first compound 0.03162 µM), 1.18. The relative viability with Masitinib + AZD7762 (first compound 0.1 µM) is 1.18; in the experiment with Masitinib + AZD7762 (first compound 0.3162 µM) it was 1.14; with Masitinib + AZD7762 (first compound 1 µM), 1.02; with Masitinib + Luminespib (first compound 0.01 µM), 0.581; with Masitinib + Luminespib (first compound 0.03162 µM), 0.796; with Masitinib + Luminespib (first compound 0.1 µM), 0.775. Besides, the values for the relative viability with Masitinib + Luminespib (first compound 0.3162 µM) and with Masitinib + Luminespib (first compound 1 µM) were 0.746 and 0.541, respectively.
Consider NCI-H23, for which the relative viability in the experiment with Masitinib + Lapatinib (first compound 0.01 µM) was determined as 0.889; in the experiment with Masitinib + Lapatinib (first compound 0.03162 µM) it was 0.829; with Masitinib + Lapatinib (first compound 0.1 µM), 1.16; with Masitinib + Lapatinib (first compound 0.3162 µM) it was 1.19; with Masitinib + Lapatinib (first compound 1 µM), 1.09; in experiment [1] (first compound 0.08 µM), 0.48. The relative viability in experiment [1] (first compound 0.253 µM) was 0.485; in experiment [1] (first compound 0.8 µM), 0.654; in experiment [1] (first compound 2.53 µM) it was 0.526; in experiment [1] (first compound 8 µM), 0.555; with Masitinib + AZD7762 (first compound 0.01 µM) it was 0.21; with Masitinib + AZD7762 (first compound 0.03162 µM) it was 0.273. Also, the relative viability in the experiment with Masitinib + AZD7762 (first compound 0.1 µM) was 0.277; with Masitinib + AZD7762 (first compound 0.3162 µM), 0.237; with Masitinib + AZD7762 (first compound 1 µM), 0.198; with Masitinib + Luminespib (first compound 0.03162 µM), 0.253; with Masitinib + Luminespib (first compound 0.1 µM), 0.221; with Masitinib + Luminespib (first compound 0.3162 µM), 0.22. Further, the relative viability with Masitinib + Luminespib (first compound 1 µM) amounted to 0.206.
Turning to NCI-H322M, the relative viability came out at 0.55 with Masitinib + Lapatinib (first compound 0.01 µM); 0.623 with Masitinib + Lapatinib (first compound 0.03162 µM); 0.573 in the experiment with Masitinib + Lapatinib (first compound 0.1 µM); 0.603 in the experiment with Masitinib + Lapatinib (first compound 0.3162 µM); 0.53 in the experiment with Masitinib + Lapatinib (first compound 1 µM); 0.418 in experiment [1] (first compound 0.08 µM). Besides, the relative viability worked out at 0.508 in experiment [1] (first compound 0.253 µM); 0.574 in experiment [1] (first compound 0.8 µM); 0.519 in experiment [1] (first compound 2.53 µM); 0.565 in experiment [1] (first compound 8 µM); 0.435 in the experiment with Masitinib + AZD7762 (first compound 0.01 µM); 0.533 in the experiment with Masitinib + AZD7762 (first compound 0.03162 µM). For the same cell line, the relative viability in the experiment with Masitinib + AZD7762 (first compound 0.1 µM) was 0.423; in the experiment with Masitinib + AZD7762 (first compound 0.3162 µM) it was 0.515; with Masitinib + AZD7762 (first compound 1 µM), 0.534; with Masitinib + Luminespib (first compound 0.01 µM), 0.875; in the experiment with Masitinib + Luminespib (first compound 0.03162 µM), 0.924; with Masitinib + Luminespib (first compound 0.1 µM), 0.878. The relative viability in the experiment with Masitinib + Luminespib (first compound 0.3162 µM) was found to be 0.876; with Masitinib + Luminespib (first compound 1 µM), 0.812.
